Data: patent US12458680B2, “Reconstitutable teverelix-TFA composition” (Antev Limited, priority 2018, dated 2025)
Square brackets hold non-standard residues; d marks the D form. Peptide text beside a SMILES is read from it. dPhe(4-Cl) = N[C@H](Cc1ccc(Cl)cc1)C(=O)O; d2Nal = N[C@H](Cc1ccc2ccccc2c1)C(=O)O; d(hCit) = NC(=O)NCCCC[C@@H](N)C(=O)O; Lys(iPr) = CC(C)NCCCC[C@H](N)C(=O)O; d3Pal = N[C@H](Cc1cccnc1)C(=O)O

What was measured:
[1] = Injection site reaction after subcutaneous and/or intramuscular injection; type: in vivo; conditions: 30-100 mg/ml, 0.4-1.6 ml
[2] = Plasma concentration of teverelix in patients versus weight; type: in vivo; conditions: different patients

injection site reaction [1]: mild injection site reaction
Structure (SMILES): CC(=O)N[C@H](Cc1ccc2ccccc2c1)C(=O)N[C@H](Cc1ccc(Cl)cc1)C(=O)N[C@H](Cc1cccnc1)C(=O)N[C@@H](CO)C(=O)N[C@@H](Cc1ccc(O)cc1)C(=O)N[C@H](CCCCNC(N)=O)C(=O)N[C@@H](CC(C)C)C(=O)N[C@@H](CCCCNC(C)C)C(=O)N1CCC[C@H]1C(=O)N[C@H](C)C(N)=O [teverelix, Ac-D-Nal-D-pClPhe-D-Pal-Ser-Tyr-D-Hci-Leu-Lys (iPr)-Pro-D-Ala-NH2] (Ac-[d2Nal][dPhe(4-Cl)][d3Pal]SY[d(hCit)]L[Lys(iPr)]P[dA]-NH2)
dependence of plasma concentration of teverelix on patients weight [2]: substantially independent of the patients weight
